Measured values taken from patent US12447151B2, “Alkyne derivative, preparation method for same, and uses thereof” (ZHEJIANG HISUN PHARMACEUTICAL CO., LTD., priority 2019, dated 2025).
pIC50: −log10 of the molar value.

Assays:
recombinant human PI3Kγ = recombinant human PI3Kγ (Homo sapiens (Human), UniProt P48736); assay: Inhibitory activity on PI3K kinase (ADP-Glo Kinase Assay); format: biochemical; conditions: for pIC50: ADP-Glo, ATP 10 μM
Text: The following method is used to determine the degree of inhibition of recombinant human PI3Kα, PI3Kβ, PI3Kγ and PI3Kδ kinase activity by the compounds of the present invention under in vitro conditions. Promega's ADP-Glo Kinase Assay Kit (Cat. No. V9102) was used in this method. The above kit was a luminescence kinase detection kit, which was used to detect the ADP content produced by the kinase reaction. The ADP content was positively correlated with the kinase activity. By measuring the ADP content, the inhibition of the compound on the activity of PI3Kα, PI3Kβ, PI3Kγ and PI3Kδ kinases was reflected. For detailed experimental operations, please refer to the kit instructions. Recombinant human PI3Kα, PI3Kγ, and PI3Kδ were purchased from Invitrogen, and PI3Kβ was purchased from Promega (category numbers were PI3Kα: PV4788; PI3Kβ: V1751; PI3Kγ: PV4786 and PI3Kδ: PV6451 separately).

[1] = Metabolic stability in liver microsomes; format: in vitro ADME; conditions: human liver microsomes 0.5 mg/mL, 1 μM compound, NADPH 1 mM; read-out: half-life period/(T1/2, min)
Description: The test compound was co-incubated with human liver microsomes, and coenzyme NADPH was added to initiate the reaction. At 0, 5, 15, 30 and 60 minutes, 20 μL of incubation solution was taken out and transferred to 200 μL of acetonitrile containing internal standard to stop the reaction. After protein precipitation, centrifugation was performed at 3,700 rpm for 10 minutes and the supernatant was taken. The supernatant was diluted 1:1 with water and analyzed by LC-MS/MS method. According to the elimination half-life of the test compound in the incubation system, the in vitro intrinsic clearance rate was calculated. Midazolam was used as the internal reference compound and incubated for two aliquots in parallel.
The ratio of peak area of the analyte/internal standard (Aanalyte/AIS) was obtained by the instrument. The remaining percentage (% Control) was calculated from the ratio of Aanalyte/AIS in the non-zero time point sample to the zero time point sample. Ln (% Control) versus incubation time was plotted and a linear fit was performed. The clearance constant (k, min^−1), the clearance half-life (T1/2, min) and the in vitro intrinsic clearance rate (CLint, mL·min^−1·mg^−1 proteins) of the test compound were calculated by the following equations.
Cprotein(mg·mL^−1) refers to the concentration of microsomal protein in the incubation system.

recombinant human PI3Kα = recombinant human PI3Kα (Homo sapiens (Human), UniProt P42336); assay: Inhibitory activity on PI3K kinase (ADP-Glo Kinase Assay)
Description: (§3) The following method is used to determine the degree of inhibition of recombinant human PI3Kα, PI3Kβ, PI3Kγ and PI3Kδ kinase activity by the compounds of the present invention under in vitro conditions. Promega's ADP-Glo Kinase Assay Kit (Cat. No. V9102) was used in this method. The above kit was a luminescence kinase detection kit, which was used to detect the ADP content produced by the kinase reaction. The ADP content was positively correlated with the kinase activity. By measuring the ADP content, the inhibition of the compound on the activity of PI3Kα, PI3Kβ, PI3Kγ and PI3Kδ kinases was reflected. […] Recombinant human PI3Kα, PI3Kγ, and PI3Kδ were purchased from Invitrogen, and PI3Kβ was purchased from Promega (category numbers were PI3Kα: PV4788; PI3Kβ: V1751; PI3Kγ: PV4786 and PI3Kδ: PV6451 separately).

recombinant human PI3Kβ = recombinant human PI3Kβ (Homo sapiens (Human), UniProt P42338); assay: as above
Description: as §3

recombinant human PI3Kδ = recombinant human PI3Kδ (Homo sapiens (Human), UniProt O00329); assay: as above
Description: as §3

[2] = Oral pharmacokinetics in ICR mice; format: in vivo; conditions: male, mouse, plasma, Oral (5 mg/kg); for AUC(0-inf): read-out: Area under the curve AUC0-∞; for bioavailability: read-out: Bioavailability F; for Cmax: read-out: Plasma concentration Cmax
Description: (§1) Using ICR mice as the test animals, the mice were intragastrically administrated with the compound of the present invention. LC/MS/MS method was used to determine the drug concentration in the plasma at different times to study the pharmacokinetic characteristics of the compound of the present invention in mice.
(§2) An appropriate amount of the compound to be tested was weighed, and 0.5% sodium carboxymethylcellulose (containing 0.05% Tween80) was added. The mixture was vortexed, and sonicated so that the solid was ultrasonically dispersed uniformly to obtain a suspension; 100 μL×2 of the preparation were aspirated, and placed in 1.5-mL EP tubes, stored at 2 to 8° C. The concentration of the preparation was 0.5 mg/mL.
Twenty-seven healthy adult ICR male mice were fasted overnight and then intragastrically administered (dosage of administration was 5 mg/kg), and fed 4 hours after administration.
At 0.083 hours, 0.25 hours, 0.5 hours, 1 hour, 2 hours, 4 hours, 8 hours, 12 hours, and 24 hours after administration, 80 μL of blood was collected from the orbital vein. About 0.08 mL of blood was collected, and placed in EDTA-K2 anticoagulation tube. […] The collected plasma was stored at −40 to −20° C. before analysis. The […] method was used to determine the content of the test compound in the plasma of ICR mice after intragastric administration of different compounds.

[3] = Oral pharmacokinetics in SD rats; format: in vivo; conditions: male, rat, plasma, Oral (5 mg/kg); for AUC(0-inf): read-out: Area under the curve AUC0-∞; for bioavailability: read-out: Bioavailability F; for half-life: read-out: Half-life period T1/2 (converted); for Cmax: read-out: Plasma concentration Cmax
Description: as §1, with “SD rats” for “ICR mice”, “as” for “as the”, “rats” for “mice”, “rats.” for “mice.”
as §2, with “obtain a suspension. 100 μL×2” for “obtain a suspension; 100 μL×2”, “of the filtered preparation were” for “of the preparation were”, “at […].” for “at 2 to 8° C.”
Nine healthy adult male SD rats were fasted overnight and then intragastrically administered (dosage of administration was 5 mg/kg), and fed 4 hours after administration.
About 0.2 mL of blood was collected from the jugular vein at 0.083 hours, 0.25 hours, 0.5 hours, 1 hour, 2 hours, 4 hours, 8 hours, 12 hours, and 24 hours after administration, and heparin sodium was used for anticoagulation. The collected blood samples were placed on ice and centrifuged to separate the plasma (centrifugation conditions: 1500 g, 10 minutes). The collected plasma was stored at −40 to −20° C. before analysis. The LC-MS/MS method was used to determine the content of the test compound in the plasma of SD rats after intragastric administration of different compounds.

Sequence of recombinant human PI3Kγ (P48736 whole entry): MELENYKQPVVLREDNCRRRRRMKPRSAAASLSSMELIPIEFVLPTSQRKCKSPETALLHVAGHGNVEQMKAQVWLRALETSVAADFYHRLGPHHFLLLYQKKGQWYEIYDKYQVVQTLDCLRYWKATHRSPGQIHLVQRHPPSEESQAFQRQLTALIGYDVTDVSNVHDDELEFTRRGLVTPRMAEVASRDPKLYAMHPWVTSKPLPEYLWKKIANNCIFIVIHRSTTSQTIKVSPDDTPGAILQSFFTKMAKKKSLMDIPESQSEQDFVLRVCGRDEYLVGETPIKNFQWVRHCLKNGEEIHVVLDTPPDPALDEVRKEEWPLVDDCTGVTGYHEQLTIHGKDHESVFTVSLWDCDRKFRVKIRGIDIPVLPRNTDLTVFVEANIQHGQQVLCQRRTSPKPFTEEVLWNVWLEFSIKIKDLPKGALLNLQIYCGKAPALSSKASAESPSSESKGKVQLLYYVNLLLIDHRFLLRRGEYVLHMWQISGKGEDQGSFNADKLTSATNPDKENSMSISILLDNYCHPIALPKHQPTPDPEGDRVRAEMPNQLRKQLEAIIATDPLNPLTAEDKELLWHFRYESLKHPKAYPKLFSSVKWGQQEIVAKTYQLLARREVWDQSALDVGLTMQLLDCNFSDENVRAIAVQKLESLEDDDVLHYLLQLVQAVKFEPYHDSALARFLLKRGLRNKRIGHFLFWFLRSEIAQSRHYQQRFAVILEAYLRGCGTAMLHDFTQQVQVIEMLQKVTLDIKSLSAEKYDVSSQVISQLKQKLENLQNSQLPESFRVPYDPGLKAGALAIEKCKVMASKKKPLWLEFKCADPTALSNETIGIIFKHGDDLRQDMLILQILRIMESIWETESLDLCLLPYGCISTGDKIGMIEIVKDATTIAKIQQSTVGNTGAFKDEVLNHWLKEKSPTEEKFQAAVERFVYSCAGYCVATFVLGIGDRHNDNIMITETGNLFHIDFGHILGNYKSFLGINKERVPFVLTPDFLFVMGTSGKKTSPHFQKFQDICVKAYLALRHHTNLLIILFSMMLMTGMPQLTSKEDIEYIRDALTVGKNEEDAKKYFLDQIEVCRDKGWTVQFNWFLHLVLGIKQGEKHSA
Sequence of recombinant human PI3Kδ (O00329 whole entry): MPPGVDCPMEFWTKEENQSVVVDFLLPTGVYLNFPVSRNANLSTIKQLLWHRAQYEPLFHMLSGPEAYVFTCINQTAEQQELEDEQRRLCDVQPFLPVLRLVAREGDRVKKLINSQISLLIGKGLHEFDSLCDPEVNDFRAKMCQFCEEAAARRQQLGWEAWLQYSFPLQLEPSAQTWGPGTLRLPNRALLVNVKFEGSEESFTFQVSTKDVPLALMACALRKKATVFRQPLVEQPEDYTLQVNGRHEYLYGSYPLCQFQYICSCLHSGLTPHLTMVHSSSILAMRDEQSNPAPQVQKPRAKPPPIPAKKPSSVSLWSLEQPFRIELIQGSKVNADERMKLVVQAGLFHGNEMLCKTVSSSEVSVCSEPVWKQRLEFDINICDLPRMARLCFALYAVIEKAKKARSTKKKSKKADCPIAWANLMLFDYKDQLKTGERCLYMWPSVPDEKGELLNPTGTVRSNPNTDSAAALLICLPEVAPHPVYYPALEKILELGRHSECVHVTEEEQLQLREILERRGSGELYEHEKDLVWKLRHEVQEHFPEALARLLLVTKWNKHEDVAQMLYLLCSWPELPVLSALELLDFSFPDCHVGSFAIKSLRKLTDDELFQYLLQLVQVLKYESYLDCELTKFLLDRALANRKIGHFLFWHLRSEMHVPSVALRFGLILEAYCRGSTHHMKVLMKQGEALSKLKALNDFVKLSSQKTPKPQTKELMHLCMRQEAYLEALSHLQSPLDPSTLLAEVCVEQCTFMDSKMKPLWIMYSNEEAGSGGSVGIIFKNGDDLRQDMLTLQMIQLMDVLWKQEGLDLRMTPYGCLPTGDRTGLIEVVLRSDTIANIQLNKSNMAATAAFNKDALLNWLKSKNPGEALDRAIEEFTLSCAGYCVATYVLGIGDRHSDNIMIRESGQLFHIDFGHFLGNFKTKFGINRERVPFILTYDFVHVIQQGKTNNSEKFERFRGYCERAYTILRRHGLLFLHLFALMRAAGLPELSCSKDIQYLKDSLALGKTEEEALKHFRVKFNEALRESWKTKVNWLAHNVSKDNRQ
Sequence of recombinant human PI3Kδ (P27986 whole entry partner): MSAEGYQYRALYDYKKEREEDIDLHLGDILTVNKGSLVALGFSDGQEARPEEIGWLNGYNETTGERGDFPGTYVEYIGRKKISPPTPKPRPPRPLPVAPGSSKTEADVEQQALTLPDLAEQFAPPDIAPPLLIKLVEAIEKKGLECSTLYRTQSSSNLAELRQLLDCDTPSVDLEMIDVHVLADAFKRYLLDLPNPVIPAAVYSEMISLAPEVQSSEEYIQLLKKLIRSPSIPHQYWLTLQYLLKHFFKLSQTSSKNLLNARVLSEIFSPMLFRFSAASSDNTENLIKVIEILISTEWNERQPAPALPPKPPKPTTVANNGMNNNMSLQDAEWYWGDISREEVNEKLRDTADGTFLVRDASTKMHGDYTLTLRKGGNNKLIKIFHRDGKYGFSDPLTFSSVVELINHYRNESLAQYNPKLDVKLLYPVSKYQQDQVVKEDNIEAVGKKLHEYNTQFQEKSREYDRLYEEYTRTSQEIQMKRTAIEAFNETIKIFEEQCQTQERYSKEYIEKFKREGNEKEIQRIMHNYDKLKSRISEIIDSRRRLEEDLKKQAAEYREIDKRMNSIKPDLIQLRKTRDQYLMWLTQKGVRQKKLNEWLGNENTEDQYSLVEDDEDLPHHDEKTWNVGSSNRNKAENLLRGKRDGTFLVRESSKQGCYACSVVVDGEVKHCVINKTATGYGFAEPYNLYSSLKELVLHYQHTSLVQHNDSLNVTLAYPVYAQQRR
Sequence of recombinant human PI3Kβ (P42338 whole entry): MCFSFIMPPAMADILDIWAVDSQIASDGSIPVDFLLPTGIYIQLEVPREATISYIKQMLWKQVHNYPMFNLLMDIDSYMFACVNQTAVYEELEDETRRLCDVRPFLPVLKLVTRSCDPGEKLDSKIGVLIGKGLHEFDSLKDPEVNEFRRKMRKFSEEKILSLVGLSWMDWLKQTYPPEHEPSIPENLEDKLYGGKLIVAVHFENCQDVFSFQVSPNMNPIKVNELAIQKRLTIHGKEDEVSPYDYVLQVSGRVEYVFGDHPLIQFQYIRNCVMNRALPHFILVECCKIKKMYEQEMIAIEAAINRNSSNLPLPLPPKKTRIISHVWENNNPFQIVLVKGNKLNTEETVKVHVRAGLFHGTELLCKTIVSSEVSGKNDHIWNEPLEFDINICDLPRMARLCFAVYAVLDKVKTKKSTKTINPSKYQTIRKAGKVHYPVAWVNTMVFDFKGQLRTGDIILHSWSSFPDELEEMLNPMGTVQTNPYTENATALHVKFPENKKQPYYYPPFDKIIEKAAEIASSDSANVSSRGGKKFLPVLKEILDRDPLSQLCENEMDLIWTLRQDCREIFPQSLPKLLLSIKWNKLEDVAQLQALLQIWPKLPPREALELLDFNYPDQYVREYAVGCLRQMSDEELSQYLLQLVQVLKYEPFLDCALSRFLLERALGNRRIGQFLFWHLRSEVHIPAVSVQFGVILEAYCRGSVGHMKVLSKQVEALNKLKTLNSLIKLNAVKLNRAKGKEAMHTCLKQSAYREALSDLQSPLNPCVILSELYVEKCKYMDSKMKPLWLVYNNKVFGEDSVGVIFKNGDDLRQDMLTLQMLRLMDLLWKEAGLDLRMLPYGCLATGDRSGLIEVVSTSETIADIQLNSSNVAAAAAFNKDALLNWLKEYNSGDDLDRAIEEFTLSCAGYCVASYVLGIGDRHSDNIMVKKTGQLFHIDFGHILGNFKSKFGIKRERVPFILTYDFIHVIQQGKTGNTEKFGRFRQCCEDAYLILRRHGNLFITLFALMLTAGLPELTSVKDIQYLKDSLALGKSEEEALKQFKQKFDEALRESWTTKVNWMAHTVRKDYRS
Sequence of recombinant human PI3Kβ (P27986 whole entry partner): as the sequence (P27986 whole entry partner) above
Sequence of recombinant human PI3Kα (P42336 whole entry): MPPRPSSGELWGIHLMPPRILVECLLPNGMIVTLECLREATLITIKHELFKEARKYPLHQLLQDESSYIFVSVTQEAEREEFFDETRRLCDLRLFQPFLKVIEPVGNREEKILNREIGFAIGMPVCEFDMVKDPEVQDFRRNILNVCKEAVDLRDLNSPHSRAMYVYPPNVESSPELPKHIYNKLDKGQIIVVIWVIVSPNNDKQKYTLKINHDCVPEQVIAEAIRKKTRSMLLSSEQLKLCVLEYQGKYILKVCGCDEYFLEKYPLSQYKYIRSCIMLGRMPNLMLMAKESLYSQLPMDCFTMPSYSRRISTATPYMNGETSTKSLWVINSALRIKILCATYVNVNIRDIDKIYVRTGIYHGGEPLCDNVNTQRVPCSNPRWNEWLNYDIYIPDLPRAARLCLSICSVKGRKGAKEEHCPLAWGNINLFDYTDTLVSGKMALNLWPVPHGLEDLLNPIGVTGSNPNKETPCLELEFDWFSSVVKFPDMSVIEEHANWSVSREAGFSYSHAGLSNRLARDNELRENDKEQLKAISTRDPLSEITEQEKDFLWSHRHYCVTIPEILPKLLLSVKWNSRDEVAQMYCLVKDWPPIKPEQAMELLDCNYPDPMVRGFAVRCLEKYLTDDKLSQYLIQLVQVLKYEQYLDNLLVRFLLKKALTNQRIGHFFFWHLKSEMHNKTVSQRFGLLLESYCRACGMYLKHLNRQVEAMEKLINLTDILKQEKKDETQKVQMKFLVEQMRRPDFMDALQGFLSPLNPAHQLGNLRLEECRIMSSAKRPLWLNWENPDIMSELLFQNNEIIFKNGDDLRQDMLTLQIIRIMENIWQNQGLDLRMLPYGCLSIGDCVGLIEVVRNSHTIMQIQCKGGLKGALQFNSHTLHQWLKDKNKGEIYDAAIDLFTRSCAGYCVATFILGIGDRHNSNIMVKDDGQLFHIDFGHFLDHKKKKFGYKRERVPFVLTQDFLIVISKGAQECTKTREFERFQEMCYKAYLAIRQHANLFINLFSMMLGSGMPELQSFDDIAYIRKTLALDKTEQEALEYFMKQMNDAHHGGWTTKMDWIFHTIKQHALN
Sequence of recombinant human PI3Kα (P27986 whole entry partner): as the sequence (P27986 whole entry partner) above

| pIC50 (recombinant human PI3Kγ) | half-life at 1 μM [1] | pIC50 (recombinant human PI3Kα) | pIC50 (recombinant human PI3Kβ) | pIC50 (recombinant human PI3Kδ) | IC50 (PI3Kα)/IC50(PI3Kγ) (recombinant human PI3Kγ; kinase selectivity for PI3Kγ over PI3Kα) | IC50 (PI3Kβ)/IC50(PI3Kγ) (recombinant human PI3Kγ; kinase selectivity for PI3Kγ over PI3Kβ) | IC50 (PI3Kδ)/IC50(PI3Kγ) (recombinant human PI3Kγ; kinase selectivity for PI3Kγ over PI3Kδ) | AUC(0-inf) [2] | bioavailability [2] | half-life ([2]; read-out: Half-life period T½ (converted)) | Cmax [2] | AUC(0-inf) [3] | bioavailability [3] | half-life [3] | Cmax [3] | SMILES |
| --- | --- | --- | --- | --- | --- | --- | --- | --- | --- | --- | --- | --- | --- | --- | --- | --- |
| 9.15 | 574 min | 6.84 | 6.26 | 6.71 | – | – | – | – | – | – | – | – | – | – | – | C[C@H](NC(=O)c1c(N)nn2cccnc12)c1nc2ccc(F)c(C#Cc3cnn(C4CC4)c3)c2c(=O)n1-c1ccccc1 [Example 3, (S)-2-amino-N-(1-(5-((1-cyclopropyl-1H-pyrazol-4-yl)ethynyl)-6-fluoro-4-oxo-3-phenyl-3,4-dihydroquinazolin-2-yl)ethyl)pyrazolo[1,5-a]pyrimidine-3-carboxamide] |
| – | 113 min | – | – | – | – | – | – | – | – | – | – | – | – | – | – | C[C@H](NC(=O)c1c(N)nn2cccnc12)c1nc2cccc(C#Cc3cnn(C)c3)c2c(=O)n1-c1ccccc1 [Compound 21 in WO2015051244A1, reference compound] |
| 9.34 | 11700 min | 6.99 | 6.63 | 6.34 | 220 | 515 | 1002 | 7470 ng·h/mL | 33% | 3.1 h | 898 ng/mL | 3940 ng·h/mL | 27% | 5.1 h | 587 ng/mL | C[C@H](NC(=O)c1c(N)nn2cccnc12)c1cc2cccc(C#Cc3cnn(C4CC4)c3)c2c(=O)n1-c1ccccc1 [Example 1, (S)-2-amino-N-(1-(8-((1-cyclopropyl-1H-pyrazol-4-yl)ethynyl)-1-oxo-2-phenyl-1,2-dihydroisoquinolin-3-yl)ethyl)pyrazolo[1,5-a]pyrimidine-3-carboxamide] |
| – | 195 min | – | – | – | – | – | – | 2660 ng·h/mL | 20% | – | 484 ng/mL | 1950 ng·h/mL | 10% | 2.4 h | 358 ng/mL | C[C@H](NC(=O)c1c(N)nn2cccnc12)c1cc2cccc(C#Cc3cnn(C)c3)c2c(=O)n1-c1ccccc1 [IPI-549, reference compound] |
